In US20260200971A1, “METHODS FOR ISOLATING, DETECTING, AND QUANTIFYING INTERCELLULAR PROTEINS” (Fred Hutchinson Cancer Center, priority 2022, published 2026):

Columns and labels:
Streptavidin = Streptavidin (Streptomyces avidinii, UniProt P22629); conditions: binding to streptavidin; cited from earlier work
MCF7:PIK3CA-mutant cells = test: CyQuant proliferation assay, alpelisib dose response, PIK3CA mutant cells; type: cell-based; conditions: estrogen deprived conditions, 5 days
Procedure: (§1) Dose response curves are shown for three different MCF7 sublines (MCF7:WS8, MCF7:PIK3CA-mutant, MCF7:PIK3CA-WT) in response to treatment with fulvestrant or alpelisib. Proliferation was determined by a CyQuant genomic DNA quantification. Individual points represent the mean of n=8 replicate wells. Curves represent the least-squares fit of the Hill equation. Error bands represent the 95% confidence interval of the fit, as determined using the gradient method.
(§2) The MCF7 cell line harbors two activating E545K mutant PIK3CA alleles. To evaluate the relationship between PIK3CA mutation, AREG expression, and drug resistance, the MCF7 parental line was compared to a previously published isogenic MCF7 line with a wildtype (WT) PIK3CA knock in, which has both mutant alleles corrected (see Beaver et al., Clin. Cancer Res. 19:5413-5422, 2013). […] Then, under estrogen deprived conditions, the growth of MCF7 PIK3CA mutant or MCF7:PIK3CA-WT cells was assessed over 5 days in the presence of varying doses of alpelisib (a PI3K inhibitor) (FIGS. 9B and 9C). Proliferation was quantified by an end-point genomic DNA quantification (CyQuant), and then the concentration-response curve was fit to a Hill equation to extract the IC50 and the asymptotic proliferation in the limit of infinite drug […].

MCF7:PIK3CA-WT cells = test: CyQuant proliferation assay, alpelisib dose response, PIK3CA-WT cells; type: cell-based; conditions: estrogen deprived conditions, 5 days
Procedure: as §1, §2

HCC70 spheroids [1] = test: Streptavidin dot blot of lysates from labeled 3D cultures; type: cell-based; conditions: for streptavidin binding signal, hydrogels containing HCC70 cells versus cell-free EHS matrix: fully embedded EHS matrix hydrogel (7-10 mg/mL protein)
Procedure: To evaluate the extent to which the streptavidin signal produced was due to reactions with azide-labeled proteins, HCC70 breast cancer cell spheroids were cultured in 2% EHS matrix suspension culture with or without azidohomoalanine.
To assess the specificity of the labeling, streptavidin dot blots were performed with homogeneous lysates prepared from each of the labeling conditions. Additionally, unlabeled lysate was included to account for non-specific binding of the streptavidin reagent, itself. […] As a non-specific reaction control, the same labeling conditions were evaluated in “empty” EHS matrix hydrogels, which contained no cells. […] After labeling and washing the samples, homogeneous lysates of all conditions were prepared.
Generation of fully embedded 3D HCC70 cultures. HCC70 spheroids were first seeded in suspension in 2% EHS matrix (following one passage in 3D suspension culture). After allowing spheroids to form for 24 hours, the spheroids were pelleted, the supernatant was aspirated, and the spheroids were directly resuspended in ice-cold EHS matrix (undiluted from the manufacturer's preparation at a typical concentration of 7-10 mg/mL). Resuspension was achieved by slow pipetting up and down forty times on ice with pipette tips that were pre-chilled at −20° C. Next, EHS matrix “domes” were created by pipetting thirty microliters of the EHS matrix/spheroid suspension directly into the center of the well of a 24-well plate with a No. 1.5 polymer coverglass bottom. The plate was flipped upside down to prevent spheroids from settling onto the coverglass, and the plate was incubated at 37° C., 5% CO2, for 1 hour to allow the EHS matrix to form an elastic hydrogel. The domes were then covered with complete cell culture media (1 mL per well) and cultured at 37° C., 5% CO2.
Streptavidin dot blot analysis. Spheroid lysates were prepared as described above. […]
MCF7:WS8 cells [2] = test: Click labeling and PEA (Olink Explore 3072) differential intercellular protein expression; type: cell-based
Procedure: PEA was used to quantify protein abundance in MCF7:WS8 cells treated with estradiol (1 nM) and fulvestrant concomitantly or with estradiol (1 nM) alone. Proteins from cells treated with or without fulvestrant were ranked by a log 2-fold change in abundance and by a false-discovery rate and identified.
The eluted protein fraction was then subjected to proximity extension assay-based quantification using the Olink® Explore protocol to quantify the abundance of proteins in a 3072-plex panel.
Intercellular protein discovery by the proximity extension assay and NPX normalized protein abundance calculation. Proteins were measured using the Olink® Explore 3072 panel (Olink Proteomics AB, Uppsala, Sweden) according to the manufacturer's instructions. For each experimental replicate, eighty microliters of elution solution (representing labeled proteins from eight hundred thousand cells), was used directly for the Olink Explore protocol.
MCF7:WS8 cells [3] = test: CyQuant genomic DNA proliferation assay, fulvestrant dose response; type: cell-based; conditions: estradiol 1 nM; for IC50: Hill equation fit
Procedure: as §1
Given that AREG induction by estradiol supports estradiol-dependent proliferation, the expectation was that constitutive overexpression of AREG would confer resistance to drugs that inhibit estrogen signaling (e.g., fulvestrant). […] The proliferation of each cell line was evaluated in the presence of estradiol (1 nM) and varying concentrations of fulvestrant using a genomic DNA quantification assay (CyQuant). The Hill equation was then used to determine the IC50 of each cell line following fulvestrant treatment (FIG. 9A). […] Therefore, targeting AREG signaling may alleviate endocrine therapy resistance.

HCC70 spheroids [4] = test: Confocal fluorescence microscopy of probe labeling in 3D spheroid culture with 2% EHS matrix; type: cell-based; conditions: azidohomoalanine 24 hours, probe 30 minutes at 37 degrees Celsius, streptavidin Alexa-Fluor 488
Procedure: To do this, 3D organotypic suspension cultures of the HCC70 breast cancer cell line were generated in the presence of EHS matrix. Next, spheroids were labeled with 500 pM azidohomoalanine for 24 hours, and after washing excess reagent, incubated the spheroids with each of the heterobifunctional probes (three hundred micromolar concentration, 30 minutes at 37 degrees Celsius). […] The samples were also counterstained with DAPI and Phalloidin to visualize the nuclei and the cell surface (F-actin in the HCC70 cells is subcortically localized near the membrane). Lastly, confocal fluorescence microscopy was used to qualitatively assess the spatial distribution of streptavidin labeling in all conditions (FIG. 2).
Azidohomoalanine labeling of 3D HCC70 cultures in 2% EHS matrix. 3D suspension cultures of HCC70 cells in 2% EHS matrix were generated from 2D monolayer culture (as described above), dissociated once, and then plated in fresh 2% EHS matrix. After 48 hours of culture, spheroids were washed three times to remove excess methionine by centrifuging at 200×g for 3 minutes, aspirating the supernatant and resuspending in PBS (with calcium and magnesium). Azidohomoalanine containing media was freshly prepared by diluting a 500 mM azidohomoalanine DMSO stock solution 1,000-fold in methionine reduced 2% EHS matrix suspension media. The washed spheroids were resuspended in azidohomoalanine-containing 2% EHS matrix suspension media (in the same volume as the original suspension), plated in 6-well ultra-low attachment plates, and incubated in TC incubator at 37° C., 5% CO2 for 24 hours.
Spheroids were cultured for 24 hours in the presence of azidohomoalanine to allow the azidohomoalanine to be incorporated into newly synthesized proteins at methionine residues. After 24 hours, spheroids were washed three times with PBS (containing calcium and magnesium) to remove unincorporated azidohomoalanine by centrifugation at 200×g for 1 minute, aspiration of the supernatant, and resuspension in the PBS wash buffer. […]

TAMR cells = test: Click labeling and PEA (Olink Explore 3072) differential intercellular protein expression; type: cell-based; conditions: tamoxifen (100 nM) + estradiol versus estradiol, FDR<0.05, therapy resistant cells
Procedure: Three-dimensional cultures of MCF7:WS8 cells and TAMR cells were generated in 2% EHS matrix suspension. Spheroids were treated with either 1) estradiol (10 nM) or 2) estradiol (10 nM) and tamoxifen (100 nM). […] The eluted protein fraction was then subjected to proximity extension assay-based quantification using the Olink® Explore protocol to quantify the abundance of proteins in a 3072-plex panel.
First, a tamoxifen-induced protein signature was developed for each line by comparing how each cell line responded to tamoxifen treatment. Next, the log 2-fold change enrichment was quantified for cells treated with or without tamoxifen.
MCF7 cells were seeded, as described above, in estrogen-depleted 2% EHS matrix suspension culture (containing charcoal-stripped FBS and phenol red free) for 24 hours to create estrogen-starved spheroids. […]
Proteins were measured using the Olink® Explore 3072 panel (Olink Proteomics AB, Uppsala, Sweden) according to the manufacturer's instructions. […] Libraries were subjected to a bead-based purification and quality was assessed using an Agilent 2100 bioanalyzer (Agilent Technologies, Palo Alto, CA). […]

[5] = tested on: Laminin B1, Laminin C1, and Nidogen; test: LC/MS label-free quantification of EHS matrix proteins in eluted fraction versus starting lysate; conditions: HCC70 spheroids, 2% EHS matrix, streptavidin enrichment and elution with free biotin
Procedure: Compositions of the EHS matrix vary from lot-to-lot, but three of the most abundant proteins EHS matrix preparations are known to be Laminin B1, Laminin C1, and Nidogen. LC/MS proteomics were performed on crude lysates prepared from organotypic cultures of HCC70 spheroids in 2% EHS matrix. As expected, the most abundant proteins in these crude lysates were the EHS matrix proteins, Laminin B1, Laminin Cl, and Nidogen (FIG. 5A). This was true regardless of whether the peptide search was performed against the human or mouse proteome, due to high sequence homology of these proteins between both species. […] Protein concentration of crude lysates was determined using a Pierce BCA assay kit (Thermo Fisher Scientific #23225) according to the manufacturer's protocol. […] Desalted samples were brought up in 2% acetonitrile in 0.1% formic acid and were analyzed by LC/ESI MS/MS with a Thermo Scientific Easy-nLC 1000 (Thermo Scientific, Waltham, MA) nano HPLC system coupled to a tribrid Orbitrap Fusion (Thermo Scientific, Waltham, MA) mass spectrometer. […] Label-free quantification data analysis of LC/MS samples. […] In the specific case in which the abundance of EHS matrix proteins was evaluated, a search was also performed against the Uniprot Mus musculus files (however, due to sequence homology the same conclusions were drawn regardless of whether the Mus musculus database was included in the search). […]

Claudin 7 = test: Streptavidin bead capture, elution and Claudin 7 western blot; parameters: species or system human; conditions: HCC70 spheroids, mild competitive elution with free biotin versus denaturing elution
Procedure: After lysing the spheroids, biotinylated or desthiobiotinylated proteins were captured using streptavidin-functionalized magnetic polystyrene beads. The unbound fraction was also collected to evaluate the capture efficiency. […] This competitive elution was performed in two sequential incubations at 37° C. and 4° C. The recovery of Claudin 7 was used to evaluate the efficiency with which full-length intercellular proteins were released from the magnetic bead. Claudin 7 is a well-known tight-junction protein associated with intercellular adhesions (FIG. 4A), and it is localized to the pericellular zones in HCC70 spheroids (FIG. 4D). Next, western blots against Claudin 7 were performed in the eluted fraction from the streptavidin pull-down, and the signal intensity of Claudin 7 from the 15 μg of HCC70 spheroid starting lysate was evaluated. […] Streptavidin magnetic bead enrichment. […] For every 100 μL of sample, 200 μL of the 10 mg/mL magnetic bead suspension were used. […] Next a magnetic bead pellet was prepared by separating the beads on a magnetic stand and removing the supernatant. […] Western blot and dot blot quantification. Western blot quantification was performed using ImageJ. […] Integrated fluorescence intensity was calculated using the “Measure” tool, and the background-corrected integrated fluorescence intensity was computed for each band.

[6] = tested on: breast epithelial MCF10A cells; conditions: 2D culture, exogenous media supplement; cited from earlier work

Sequence of Streptavidin (P22629 25-183, species assumed): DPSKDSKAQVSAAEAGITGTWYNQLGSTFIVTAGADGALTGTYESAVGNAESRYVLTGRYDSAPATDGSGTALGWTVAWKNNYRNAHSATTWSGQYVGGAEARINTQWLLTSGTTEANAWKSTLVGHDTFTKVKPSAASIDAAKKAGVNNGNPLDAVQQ

Molecule: C[C@@H]1NC(=O)N[C@@H]1CCCCCC(=O)O [Desthiobiotin]
- Kd (Streptavidin): 0.66 nM
- Koff (Streptavidin): 0.018 s⁻¹
- Kon (Streptavidin): 2.7e7 1/M 1/s

Molecule: Cc1nc(NC(=O)N2CCC[C@H]2C(N)=O)sc1-c1ccnc(C(C)(C)C(F)(F)F)c1 [alpelisib]
- increase in IC50 by AREG overexpression (MCF7:PIK3CA-mutant cells): 4 fold
- effect of AREG overexpression on alpelisib response (MCF7:PIK3CA-WT cells): no effect

Molecule: [N-]=[N+]=NCC[C@H](N)C(=O)O [azidohomoalanine]
- streptavidin binding versus non-labeled azidohomoalanine controls (HCC70 spheroids [1]; 2% EHS matrix suspension, DBCO-PEG4-Desthiobiotin labeling): 10 fold

Molecule: C[C@]12CC[C@@H]3c4ccc(O)cc4CC[C@H]3[C@@H]1CC[C@@H]2O [estradiol]
- number of proteins upregulated by at least 2-fold (MCF7:WS8 cells [2]; estradiol versus estrogen-deprived controls, FDR<0.05): at least 188 proteins

Molecule: C[C@]12CC[C@@H]3c4ccc(O)cc4C[C@@H](CCCCCCCCC[S+]([O-])CCCC(F)(F)C(F)(F)F)[C@H]3[C@@H]1CC[C@@H]2O (stereo partly drawn) [fulvestrant]
- most significantly upregulated intercellular protein (MCF7:WS8 cells [2]; estradiol (1 nM) + fulvestrant versus estradiol (1 nM) alone, FDR<0.05): ITGB6
- IC50 (MCF7:WS8 cells [3]; MCF7:WS8, AREG overexpression line): 255 nM
- IC50 (MCF7:WS8 cells [3]; MCF7:WS8, control line (ORF stuffer)): 34 nM
- increase in IC50, AREG overexpression versus control (MCF7:WS8 cells [3]): 7.5 fold

Molecule: O=C1N[C@H]2[C@H](CS[C@H]2CCCCC(=O)ON2C(=O)CC(S(=O)(=O)[O-])C2=O)N1.[Na+] (stereo partly drawn) [sulfo-NHS-biotin]
- streptavidin binding signal, hydrogels containing HCC70 cells versus cell-free EHS matrix (HCC70 spheroids [1]): equal
- labeling of the pericellular zone / intercellular spaces (HCC70 spheroids [4]): unable to diffuse into intercellular zones of the organoids

Molecule: CC/C(=C(\c1ccccc1)c1ccc(OCCN(C)C)cc1)c1ccccc1 [tamoxifen]
- number of proteins upregulated at least 2-fold in response to tamoxifen (MCF7:WS8 cells [2]; tamoxifen (100 nM) + estradiol versus estradiol, FDR<0.05, therapy sensitive cells): Thirty
- number of proteins upregulated at least 2-fold in response to tamoxifen (TAMR cells): forty-three

Molecule: DBCO-PEG4-Desthiobiotin
- streptavidin binding signal, hydrogels containing HCC70 cells versus cell-free EHS matrix (HCC70 spheroids [1]): 10 fold
- lower normalized abundance of Laminin B1, Laminin C1 and Nidogen versus starting lysates [5]: over 10 fold
- recovery of Claudin 7 compared to the DBCO-sulfo-biotin samples (Claudin 7): 10 fold
- labeling of the pericellular zone / intercellular spaces (HCC70 spheroids [4]): exhibited pericellular labeling

Molecule: DBCO-sulfo-Biotin
- labeling of the pericellular zone / intercellular spaces (HCC70 spheroids [4]): exhibited pericellular labeling

B1: recombinant amphiregulin: recombinant amphiregulin (AREG), EGF receptor family ligand (protein, UniProt P15514 101-187, looked up)
Amphiregulin: SVRVEQVVKPPQNKTESENTSDKPKRKKKGGKNGKNRRNRKKKNPCNAEFQNFCIHGECKYIEHLEAVTCKCQQEYFGERCGEKSMK
modifications: Amphiregulin
notes: recombinant amphiregulin (AREG), EGF receptor family ligand
- concentrations at which activity is exhibited [6]: 5 to 50 ng/mL
